Experimental findings from ChEMBL document CHEMBL1201862, “PubChem BioAssay data set” (2004) are described below.

Values joined by “and” are separate entries in the source; they are usually repeats but may differ in a detail not shown here. Equal entries are not always repeated.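 A five-concentration, 48-hour dose response in 96-well plates underlies each endpoint, interpolated linearly between surrounding concentrations. At the GI50, growth is halved.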 Active and inactive are the calls of the source. Rule as the data show it: active = GI50 up to about 1.1 µM and inactive = higher. Residues, ends and D or L forms follow the SMILES beside them. *: point of attachment. Boc = CC(C)(C)OC(=O)*

Among the test systems are SNB-19; UO-31; UACC-62; NCI-H460; ACHN; SR; KM12; RPMI-8226; SW-620; IGROV-1; HCC 2998; SN12C; K562; T47D; OVCAR-8; A549; M14; SK-OV-3; SK-MEL-5; SF-295.
Common to all, as to experiment: growth of human tumour cells (NCI), 48 h

As for `COS(C)(=O)=O` [METHANESULFONIC ACID METHYL ESTER], the GI50 in the assay on SNB-19, in the assay with UO-31, with UACC-62, in the assay on NCI-H460, with ACHN and with SR was > 2 µM (inactive) throughout. In addition, the GI50 with KM12, in the assay on RPMI-8226, with SW-620, in the assay with IGROV-1, with HCC 2998 and with SN12C was > 2 µM (inactive) in each case. The GI50 in the assay with K562, in the assay on T47D, in the assay on OVCAR-8, in the assay with A549, in the assay on M14 and with SK-OV-3 was > 2 µM (inactive) in each case.
For the compound `CCOC(=O)CCC1(C(=O)O[C@@H]2C[C@H](C)CC[C@H]2C(C)C)CCCCC1=O` (stereo partly drawn), the GI50 is 31.1 µM (inactive) in the assay with SK-MEL-5; > 100 µM (inactive) in the assay with SNB-19; > 100 µM (inactive) with UO-31; 94.6 µM (inactive) with UACC-62; 36.6 µM (inactive) with NCI-H460; 74.8 µM (inactive) in the assay with ACHN. Also, the GI50 in the assay on SR is 41.2 µM (inactive); with KM12 it was 50.4 µM (inactive); with RPMI-8226 it was 28.7 µM (inactive); in the assay on SW-620 it was > 100 µM (inactive); in the assay with IGROV-1, > 100 µM (inactive); in the assay on SN12C, > 100 µM (inactive). In addition, the GI50 with K562 was 28.1 µM (inactive); in the assay with T47D, 34.8 µM (inactive); with OVCAR-8, > 100 µM (inactive); with A549, 55.3 µM (inactive); with SF-295 it was 65.8 µM (inactive); in the assay with M14 it was 56.5 µM (inactive). Further, in the assay on SK-OV-3, the GI50 was > 100 µM (inactive).
With `CC(C)(C)OC(=O)NC(Cc1ccc(O)cc1)C(=O)NC(CCCCN)C(=O)O` (stereo not drawn) (Boc-Tyr-Lys-OH; configuration not given here), the GI50 with SK-MEL-5 is 28.1 µM (inactive); in the assay on SNB-19, 22 µM (inactive); in the assay with UO-31, 19.7 µM (inactive); in the assay with UACC-62, 16.5 µM (inactive); in the assay with NCI-H460, 25.2 µM (inactive); with ACHN it was 23.7 µM (inactive). The GI50 with SR was 28.6 µM (inactive); with RPMI-8226 it was 32.9 µM (inactive); in the assay on SW-620 it was 33.3 µM (inactive); in the assay on IGROV-1, 17.3 µM (inactive); in the assay on HCC 2998 it was 28.9 µM (inactive); with SN12C, 19.9 µM (inactive). For the same compound, the GI50 in the assay on K562 was 35.8 µM (inactive); with T47D, 15.3 µM (inactive); in the assay on OVCAR-8, 35.2 µM (inactive); in the assay on A549 it was 40.4 µM (inactive); with M14, 17.4 µM (inactive).
Regarding `C[n+]1c(-c2ccc(/C=N/NC(=O)C(=O)N/N=C/c3ccc(-c4cn5ccsc5[n+]4C)cc3)cc2)cn2ccsc21`, the GI50 in the assay with SK-MEL-5, with SNB-19, in the assay with UO-31, in the assay with NCI-H460, with ACHN and in the assay on SR was > 100 µM (inactive) throughout. Besides, the GI50 with KM12 was > 100 µM (inactive); in the assay on RPMI-8226 it was 82.6 µM (inactive); in the assay with SW-620, > 100 µM (inactive); in the assay on IGROV-1, > 100 µM (inactive); in the assay with HCC 2998, > 100 µM (inactive); in the assay on SN12C, > 100 µM (inactive). Further, the GI50 was > 100 µM (inactive) with K562; > 100 µM (inactive) in the assay on T47D; > 100 µM (inactive) in the assay with OVCAR-8; > 100 µM (inactive) in the assay on A549; 53.5 µM (inactive) with SF-295; > 100 µM (inactive) in the assay on M14. In addition, the GI50 in the assay on SK-OV-3 was > 100 µM (inactive).
Turning to `O=C1/C(=C/c2cccnc2)SC(=S)N1Cc1ccco1`, the GI50 with SK-MEL-5 is 13.4 µM (inactive); in the assay with SNB-19 it was 32 µM (inactive); in the assay with UO-31, 2.84 µM (inactive); in the assay on UACC-62, 8.97 µM (inactive); in the assay with NCI-H460 it was 6.37 µM (inactive); in the assay on ACHN it was 10.7 µM (inactive). For the same compound, the GI50 with SR is 1.44 µM (inactive); in the assay with KM12, 3.13 µM (inactive); with RPMI-8226, 2.2 µM (inactive); in the assay with SW-620 it was 3.84 µM (inactive); in the assay on IGROV-1 it was 6.68 µM (inactive); in the assay with SN12C, 4.47 µM (inactive). For the same compound, the GI50 is 14.6 µM (inactive) in the assay on K562; 11.7 µM (inactive) in the assay with T47D; 4.7 µM (inactive) in the assay on OVCAR-8; 31 µM (inactive) in the assay on A549; 35.7 µM (inactive) in the assay on SF-295; 5.6 µM (inactive) with M14. Also, in the assay on SK-OV-3, the GI50 was 19.1 µM (inactive).
Take `COC1OC(C(=O)CP(=O)(OC)OC)C(OCc2ccccc2)C(OCc2ccccc2)C1OCc1ccccc1` (stereo not drawn): the GI50 was 14.8 µM (inactive) and 15 µM (inactive) in the assay with SK-MEL-5; 15.9 µM (inactive) and 16.3 µM (inactive) with SNB-19; 11.2 µM (inactive) and 17.1 µM (inactive) with UO-31; 13.7 µM (inactive) and 14.8 µM (inactive) in the assay with UACC-62; 15 µM (inactive) and 15.9 µM (inactive) in the assay on NCI-H460; 16.4 µM (inactive) and 15.9 µM (inactive) in the assay with ACHN. For the same compound, the GI50 is 16.4 µM (inactive) and 25.4 µM (inactive) with SR; 18.7 µM (inactive) and 18.9 µM (inactive) with KM12; 20.7 µM (inactive) and 34.3 µM (inactive) with SW-620; 18.3 µM (inactive) and 18.9 µM (inactive) in the assay on IGROV-1; 16.2 µM (inactive) and 17.3 µM (inactive) with HCC 2998; 16.4 µM (inactive) in the assay on SN12C. Further, the GI50 was 31 µM (inactive) and 17.9 µM (inactive) in the assay with K562; 18 µM (inactive) and 15.5 µM (inactive) in the assay on T47D; 19.8 µM (inactive) and 17.9 µM (inactive) with OVCAR-8; 15.3 µM (inactive) and 15.5 µM (inactive) in the assay on A549; 16.5 µM (inactive) and 14.5 µM (inactive) in the assay with SF-295; 15.3 µM (inactive) and 16.6 µM (inactive) in the assay with M14. The GI50 with SK-OV-3 is 18.1 µM (inactive) and 17.9 µM (inactive).
`COC(=O)c1cccc(C)c1C1CN=NC12Cc1c(ccc(C)c1C)C2=O` (stereo not drawn): the GI50 in the assay with SK-MEL-5 was 0.102 µM (active); in the assay on SNB-19, 55 µM (inactive); in the assay on UO-31, > 100 µM (inactive); in the assay with NCI-H460, 47.6 µM (inactive); in the assay on ACHN, 34.4 µM (inactive); in the assay on SR, 21.3 µM (inactive). Moreover, the GI50 was 23.3 µM (inactive) with KM12; 17.3 µM (inactive) in the assay with RPMI-8226; 29.5 µM (inactive) with SW-620; 76.4 µM (inactive) in the assay on IGROV-1; 40.4 µM (inactive) in the assay on HCC 2998; 13.6 µM (inactive) with SN12C. Further, the GI50 with K562 was 19 µM (inactive); with T47D it was 5.4 µM (inactive); with OVCAR-8, 30.7 µM (inactive); with A549, 40.6 µM (inactive); with M14, 45.3 µM (inactive).
`COC(=O)[C@@H]1N2C(=S)N(c3ccccc3)C(=O)[C@H]2SC1(C)C`: the GI50 in the assay on SK-MEL-5, with SNB-19, with UO-31, in the assay on UACC-62, with NCI-H460 and with ACHN was > 100 µM (inactive) each time. For the same compound, the GI50 in the assay on SR is 65.6 µM (inactive); in the assay with KM12, > 100 µM (inactive); in the assay with RPMI-8226, > 100 µM (inactive); with SW-620, > 100 µM (inactive); in the assay on IGROV-1, > 100 µM (inactive); with HCC 2998, > 100 µM (inactive). The GI50 with SN12C, with T47D, in the assay on OVCAR-8, in the assay with A549, with SF-295 and with M14 was > 100 µM (inactive) throughout. Further, the GI50 in the assay on SK-OV-3 is > 100 µM (inactive).
For the compound `CC(C)=CCC/C(C)=C\CC/C(C)=C/CO`, the GI50 in the assay on SK-MEL-5 was 26.4 µM (inactive); in the assay with SNB-19, 18.5 µM (inactive); in the assay on UO-31, 22.5 µM (inactive); in the assay on NCI-H460, > 10 µM (inactive); in the assay with ACHN, 22.4 µM (inactive); in the assay on SR it was 21.4 µM (inactive). Also, the GI50 in the assay on KM12 was 38.2 µM (inactive); with RPMI-8226 it was 14.7 µM (inactive); in the assay on SW-620 it was 85.9 µM (inactive); in the assay on IGROV-1 it was 24.4 µM (inactive); in the assay on HCC 2998 it was 22.6 µM (inactive); in the assay with SN12C, 41.1 µM (inactive). In addition, the GI50 is 19.7 µM (inactive) with K562; 31 µM (inactive) in the assay on T47D; 21.6 µM (inactive) in the assay on OVCAR-8; > 100 µM (inactive) in the assay on A549; 23.1 µM (inactive) with SF-295; 16.5 µM (inactive) in the assay with M14.
On to `[N-]=[N+]=Nc1cc(=O)[nH]nc1-c1ccccc1`, for which the GI50 in the assay on UO-31, in the assay with UACC-62, in the assay with NCI-H460, in the assay with ACHN, with SR and in the assay on KM12 was > 100 µM (inactive) throughout. The GI50 in the assay with RPMI-8226, in the assay on SW-620, with IGROV-1, in the assay on HCC 2998, with SN12C and with K562 was > 100 µM (inactive) each time. Further, the GI50 in the assay on T47D, in the assay with OVCAR-8, with A549, in the assay with SF-295, in the assay on M14 and in the assay on SK-OV-3 was > 100 µM (inactive) in each case.
